Like-named read-outs stand apart in the source and are kept apart here.
Columns and labels:
HCov OC43 = assay: HCoV OC43 cytopathic effect (CPE) assay, CellTiter Glo; assay type: cell-based, human coronavirus (HCov) OC43
[1] = target: COVID-19 (nCoV-2019, SARS-CoV2) Mpro (Severe acute respiratory syndrome coronavirus 2, UniProt P0DTD1); assay: COVID-19 (nCoV-2019, SARS-CoV2) Mpro enzymatic assay; assay type: biochemical; conditions: 25 nM Mpro, 25 μM substrate; read-out: COVID-19 Mpro IC50
229E Mpro = 229E Mpro (Human coronavirus 229E, UniProt P0C6X1); assay: 229E Mpro enzymatic assay (standard methods, SARS-CoV2 Mpro assay given as exemplary); assay type: biochemical, human coronavirus (HCov) 229E
Chain of 229E Mpro (P0C6X1 2966-3267): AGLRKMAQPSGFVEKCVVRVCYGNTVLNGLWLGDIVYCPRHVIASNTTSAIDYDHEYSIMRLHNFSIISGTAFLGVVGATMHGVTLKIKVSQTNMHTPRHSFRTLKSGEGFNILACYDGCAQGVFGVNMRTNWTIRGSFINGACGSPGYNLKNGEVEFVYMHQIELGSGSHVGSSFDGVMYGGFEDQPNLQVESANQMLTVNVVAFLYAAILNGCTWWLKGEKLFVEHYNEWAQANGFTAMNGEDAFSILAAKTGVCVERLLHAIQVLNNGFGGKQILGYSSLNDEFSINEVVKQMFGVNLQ
Outline: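 Run by standard methods, with the SARS-CoV-2 Mpro protocol given as the model: E. coli-expressed C-His6 protease at 25 nM and substrate at 25 μM (Km 13.5 μM). Buffer pH 7.3 with 5 mM TCEP and 0.1% BSA; % inhibition versus controls fitted to variable-slope log(inhibitor)-response for IC50.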

[2] = Betacoronavirus 1, OC43, read-out: OC43 IC50 (uM) MEDIAN, median
[3] = read-out: OC43 IC50 (uM) MEDIAN, median

Row | Structure (SMILES) | IC50 [1] [µM] | EC50 (229E Mpro; 229E Mpro EC50) [µM] | IC50 (HCov OC43; [2]) [µM] | EC50 (229E Mpro; read-out: 229E Mpro EC50) [µM] | other results
1 | CC(C)(C)c1ccc(N(C(=O)[C@H]2CCC(C)(C)N2C#N)C(C(=O)NC2CCCCC2)c2cccnc2)cc1 (single isomer, unassigned) [Compound 262 Isomer 2] | 2 to 10 | < 2 | – | – | IC50 (HCov OC43; read-out: OC43 IC50 (uM) MEDIAN, median, listed as 262 Isomer 2): 10 to 30 µM
2 | CC(C)(C)c1ccc(N(C(=O)[C@H]2CC(=O)CN2C#N)C(C(=O)NC2CCCCC2)c2cccnc2)cc1 (single isomer, unassigned) [Compound 278 Isomer 1] | 2 to 10 | < 2 | 10 to 30 | – | –
3 | CC1(O)C[C@H](C(=O)N(c2ccc(C(C)(C)C)cc2)C(C(=O)NC2CCCCC2)c2cccnc2)N(C#N)C1 (single isomer, unassigned) [Compound 284 Isomer 1] | 2 to 10 | – | – | < 2 | IC50 (HCov OC43; read-out: OC43 IC50 (uM) MEDIAN, median, listed as 284 Isomer 1): 10 to 30 µM
4 | CO[C@@H]1C[C@H](C(=O)N(c2ccc(C(C)(C)C)cc2)C(C(=O)NC2CCCCC2)c2cccnc2)N(C#N)C1 (single isomer, unassigned) [Compound 292 Isomer 1] | 2 to 10 | < 2 | 2 to 10 | – | –
5 | CO[C@H]1C[C@H](C(=O)N(c2ccc(C(C)(C)C)cc2)C(C(=O)NC2CCCCC2)c2cccnc2)N(C#N)C1 (single isomer, unassigned) [Compound 293 Isomer 2] | 10 to 30 | 2 to 10 | – | – | IC50 (HCov OC43; read-out: OC43 IC50 (uM) MEDIAN, median, listed as 293 Isomer 2): 10 to 30 µM
6 | CC(C)(C)O[C@@H]1C[C@H](C(=O)N(c2ccc(C(C)(C)C)cc2)C(C(=O)NC2CCCCC2)c2cccnc2)N(C#N)C1 (single isomer, unassigned) [Compound 299 Isomer 1] | 10 to 30 | 10 to 30 | – | – | IC50 (HCov OC43; read-out: OC43 IC50 (uM) MEDIAN, median, listed as 299 Isomer 1): 10 to 30 µM
7 | CC(C)(C)c1ccc(N(C(=O)[C@H]2C[C@H](Oc3ccccc3)CN2C#N)C(C(=O)NC2CCCCC2)c2cccnc2)cc1 (single isomer, unassigned) [Compound 308 Isomer 1] | > 30 | > 30 | > 30 | – | –
8 | CC(C)(C)c1ccc(N(C(=O)[C@H]2Cc3ccccc3CN2C#N)C(C(=O)NC2CCCCC2)c2cccnc2)cc1 (single isomer, unassigned) [Compound 374 Isomer 1] | > 30 | > 30 | – | – | IC50 (HCov OC43; read-out: OC43 IC50 (uM) MEDIAN, median, listed as 374 Isomer 1): > 30 µM
9 | CC(C)(C)c1ccc(N(C(=O)[C@H]2Cc3ccccc3CN2C#N)C(C(=O)NC2CCCCC2)c2cccnc2)cc1 (single isomer, unassigned) [Compound 374 Isomer 2] | < 2 | < 2 | – | – | IC50 (HCov OC43; read-out: OC43 IC50 (uM) MEDIAN, median, listed as 374 Isomer 2): 2 to 10 µM
10 | COc1ccc(NC(=O)C(c2cccnc2)N(C(=O)[C@H]2CCCN2C#N)c2ccc(C(C)(C)C)cc2)cn1 (single isomer, unassigned) [Compound 407 Isomer 1] | < 2 | < 2 | – | – | IC50 (HCov OC43; read-out: OC43 IC50 (uM) MEDIAN, median, listed as 407 Isomer 1): 2 to 10 µM
11 | COc1ccc(NC(=O)C(c2cccnc2)N(C(=O)[C@H]2CCCN2C#N)c2ccc(C(C)(C)C)cc2)cn1 (single isomer, unassigned) [Compound 407 Isomer 2] | > 30 | 10 to 30 | – | – | IC50 (HCov OC43; read-out: OC43 IC50 (uM) MEDIAN, median, listed as 407 Isomer 2): > 30 µM
12 | CC(C)(C)c1ccc(N(C(=O)[C@H]2CCCN2C#N)C(C(=O)NCC2COC2)c2cccnc2)cc1 (single isomer, unassigned) [Compound 419 Isomer 2] | 2 to 10 | – | – | < 2 | IC50 (HCov OC43; [3]): 2 to 10 µM
13 | COC(C)(C)CNC(=O)C(c1cccnc1)N(C(=O)[C@H]1CCCN1C#N)c1ccc(C(C)(C)C)cc1 (single isomer, unassigned) [Compound 427 Isomer 1] | 10 to 30 | 2 to 10 | – | – | IC50 (HCov OC43; read-out: OC43 IC50 (uM) MEDIAN, median, listed as 427 Isomer 1): > 30 µM
14 | CN(C)CCNC(=O)C(c1cccnc1)N(C(=O)[C@H]1CCCN1C#N)c1ccc(C(C)(C)C)cc1 (single isomer, unassigned) [Compound 435 Isomer 2] | 10 to 30 | – | – | < 2 | IC50 (HCov OC43; read-out: OC43 IC50 (uM) MEDIAN, median, listed as 435 Isomer 2): 10 to 30 µM
15 | CC(C)(C)c1ccc(N(C(=O)[C@H]2CCCN2C#N)C(C(=O)NCc2ccncc2)c2cccnc2)cc1 (single isomer, unassigned) [Compound 439 Isomer 1] | 2 to 10 | < 2 | 10 to 30 | – | –
16 | CC(C)(C)c1ccc(N(C(=O)[C@H]2CCCN2C#N)C(C(=O)NCc2ccncc2)c2cccnc2)cc1 (single isomer, unassigned) [Compound 439 Isomer 2] | 2 to 10 | – | – | < 2 | IC50 (HCov OC43; [3]): 10 to 30 µM
17 | Cc1c[nH]c2cc(N(C(=O)[C@H]3C[C@@H](O)CN3C#N)C(C(=O)NC3CCC(F)(F)CC3)c3cncc(F)c3)ccc12 (single isomer, unassigned) [Compound 747b Isomer 2] | 2 to 10 | – | – | < 2 | IC50 (HCov OC43; [3]): 2 to 10 µM
18 | N#CN1C[C@H](O)C[C@@H]1C(=O)N(c1ccc(C2CC2)cc1F)C(C(=O)NC1CCCCC1)c1cccnc1 (single isomer, unassigned) [Compound 763 Isomer 1] | < 2 | < 2 | < 2 | – | –
19 | N#CN1C[C@H](O)C[C@@H]1C(=O)N(c1ccc(C2CC2)c(F)c1)C(C(=O)NC1CCCCC1)c1cccnc1 (single isomer, unassigned) [Compound 767 Isomer 2] | 2 to 10 | – | – | < 2 | IC50 (HCov OC43; [3]): 2 to 10 µM
20 | N#CN1C[C@H](O)C[C@@H]1C(=O)N(c1ccc(C(F)(C(F)(F)F)C(F)(F)F)cc1)C(C(=O)NC1CCCCC1)c1cccnc1 (single isomer, unassigned) [Compound 779 Isomer 2] | 2 to 10 | 2 to 10 | – | – | IC50 (HCov OC43; [3]): 2 to 10 µM
21 | N#CN1C[C@H](O)C[C@@H]1C(=O)N(c1ccc(S(F)(F)(F)(F)F)cc1)C(C(=O)NC1CCCCC1)c1cccnc1 (single isomer, unassigned) [Compound 791 Isomer 1] | < 2 | < 2 | < 2 | – | –
22 | N#CN1C[C@H](O)C[C@@H]1C(=O)N(c1ccc(C2(C(F)(F)F)CC2)cc1)C(C(=O)NC1CCC(F)(F)CC1)c1cncc(F)c1 (single isomer, unassigned) [Compound 815a Isomer 1] | < 2 | < 2 | < 2 | – | –
23 | N#CN1C[C@H](O)C[C@@H]1C(=O)N(c1ccc(C2(C(F)(F)F)CC2)cc1)C(C(=O)NC1CCC(F)(F)CC1)c1cncc(F)c1 (single isomer, unassigned) [Compound 815a Isomer 2] | < 2 | – | – | < 2 | IC50 (HCov OC43; [3]): < 2 µM
24 | N#CN1C[C@@H](OC(F)F)C[C@@H]1C(=O)N(c1ccc(S(F)(F)(F)(F)F)cc1)C(C(=O)NC1CCC(F)(F)CC1)c1cncc(F)c1 (single isomer, unassigned) [Compound 823a Isomer 1] | < 2 | < 2 | < 2 | – | –
25 | N#CN1C[C@@H](OC(F)F)C[C@@H]1C(=O)N(c1ccc(S(F)(F)(F)(F)F)cc1)C(C(=O)NC1CCC(F)(F)CC1)c1cncc(F)c1 (single isomer, unassigned) [Compound 823a Isomer 2] | < 2 | – | – | < 2 | IC50 (HCov OC43; [3]): 2 to 10 µM
26 | CC(C)(C)c1ccc(N(C(=O)[C@H]2CC(F)(F)CN2C#N)C(C(=O)NC2CCCCC2)c2cccnc2)cc1 (single isomer, unassigned) [Compound 876 Isomer 2] | 10 to 30 | – | – | < 2 | IC50 (HCov OC43; read-out: OC43 IC50 (uM) MEDIAN, median, listed as 876 Isomer 2): > 30 µM
27 | CC(C)(C)c1ccc(N(C(=O)[C@H]2[C@H](F)CCN2C#N)C(C(=O)NC2CCCCC2)c2cccnc2)cc1 (single isomer, unassigned) [Compound 910 Isomer 1] | < 2 | < 2 | < 2 | – | –
28 | CC(C)(C)c1ccc(N(C(=O)[C@H]2[C@H](F)CCN2C#N)C(C(=O)NC2CCCCC2)c2cccnc2)cc1 (single isomer, unassigned) [Compound 910 Isomer 2] | 10 to 30 | – | – | < 2 | IC50 (HCov OC43; [3]): 2 to 10 µM

— US20220380347A1, “INHIBITORS OF CYSTEINE PROTEASES AND METHODS OF USE THEREOF” (Pardes Biosciences, Inc., priority 2020, published 2022)
